According to US9593149B2, “Amylin and calcitonin receptor agonist” (Novo Nordisk A/S, priority 2014, dated 2017):
≈ marks a conversion by molar mass, not a printed value. Numbered stars: 1 amine (or outer) side, 2 acyl side, 3 side chain; on linkers, the order of the positions; unused ones are H or OH. Peptide text beside a SMILES is read from it. * marks the point of attachment. C20 diacid = O=C(O)CCCCCCCCCCCCCCCCCCC(=O)*; C18 diacid = O=C(O)CCCCCCCCCCCCCCCCC(=O)*; γGlu = O=C(O)[C@H](CCC(=O)[*:2])N[*:1]; AEEA = NCCOCCOCC(=O)O

Experiment: Assay (IV) determination of solubility
Assay type: physicochemical
Procedure: Assay (IV)—Determination of Solubility
The mimylin peptide was dissolved in water at ˜500 nmol/ml and mixed 1:1 with a series of buffers (100 mM glycylglycine pH 3.0, 100 mM glycylglycine pH 4.0, 100 mM glycylglycine pH 5.0, 100 mM bistrispropane pH 6.0, 100 mM bistrispropane pH 6.5, 100 mM bistrispropane pH 7.0, 100 mM bistrispropane pH 7.5, 100 mM bistrispropane pH 8.0).

SMILES | Solubility (pH 3.0) | solubility at 18 h (pH 4.0) [µM] | Solubility (pH 5.0) | Solubility (pH 6.0) | Solubility (pH 6.5) | Solubility (pH 7.0) | Solubility (pH 7.5) | Solubility (pH 8.0) | Solubility (pH 4.0)
CC[C@H](C)[C@H](NC(=O)[C@H](C)NC(=O)[C@@H](NC(=O)[C@H](CO)NC(=O)[C@@H](NC(=O)[C@H](CCC(=O)O)NC(=O)[C@H](CO)NC(=O)[C@H](C)NC(=O)[C@H](CCC(=O)O)NC(=O)CCCCCCCCCCCCCCCCC(=O)O)[C@@H](C)CC)[C@@H](C)O)C(=O)N[C@H](C(=O)NCC(=O)N[C@@H](CCCNC(=N)N)C(=O)N[C@@H](CC(C)C)C(=O)N[C@@H](CO)C(=O)N[C@@H](C)C(=O)N[C@@H](CCC(=O)O)C(=O)N[C@@H](CC(C)C)C(=O)N[C@@H](Cc1cnc[nH]1)C(=O)N[C@@H](CCC(=O)O)C(=O)N[C@@H](CC(C)C)C(=O)N[C@@H](C)C(=O)N[C@H](C(=O)N[C@@H](CC(C)C)C(=O)N1CCC[C@H]1C(=O)N[C@@H](CCCNC(=N)N)C(=O)N[C@H](C(=O)N[C@@H](CCC(=O)O)C(=O)N[C@H](C(=O)NCC(=O)N1CCC[C@H]1C(=O)N[C@@H](CCC(=O)O)C(=O)N[C@@H](CO)C(=O)N1CCC[C@H]1C(N)=O)[C@@H](C)O)[C@@H](C)O)[C@@H](C)O)[C@@H](C)CC [compound 37, [N-terminal(C18 diacid), 5I, 9I, 10I]mimylin] ({C18 diacid}-EASEISTAIIGRLSAELHELATLPRTETGPESP-NH2) | ≧200 μM | 18 (≈ 67.9 µg/mL) | ≧200 μM | ≧200 μM | ≧200 μM | ≧200 μM | ≧200 μM | ≧200 μM | –
CC(C)C[C@H](NC(=O)[C@H](CCC(=O)O)NC(=O)[C@H](Cc1cnc[nH]1)NC(=O)[C@H](CC(C)C)NC(=O)[C@H](CCC(=O)O)NC(=O)[C@H](C)NC(=O)[C@H](CO)NC(=O)[C@H](CC(C)C)NC(=O)[C@H](CCCNC(=N)N)NC(=O)CNC(=O)[C@H](CC(C)C)NC(=O)[C@@H](NC(=O)[C@H](C)NC(=O)[C@@H](NC(=O)[C@H](CO)NC(=O)[C@H](CC(C)C)NC(=O)[C@@H]1CCCN1C(=O)[C@@H]1CCCN1C(=O)[C@H](C)NC(=O)[C@H](CCC(=O)O)NC(=O)CCCCCCCCCCCCCCCCC(=O)O)[C@@H](C)O)C(C)C)C(=O)N[C@@H](C)C(=O)N[C@H](C(=O)N[C@@H](CC(C)C)C(=O)N1CCC[C@H]1C(=O)N[C@@H](CCCNC(=N)N)C(=O)N[C@H](C(=O)N[C@@H](CCC(=O)O)C(=O)N[C@H](C(=O)NCC(=O)N1CCC[C@H]1C(=O)N[C@@H](CCC(=O)O)C(=O)N[C@@H](CO)C(=O)N1CCC[C@H]1C(N)=O)[C@@H](C)O)[C@@H](C)O)[C@@H](C)O [compound 38, [N-terminal(C18 diacid), 3P, 4P, 9V]mimylin] ({C18 diacid}-EAPPLSTAVLGRLSAELHELATLPRTETGPESP-NH2) | ≧200 μM | – | ≧200 μM | ≧200 μM | ≧200 μM | ≧200 μM | ≧200 μM | ≧200 μM | ≧200 μM
CC(C)C[C@H](NC(=O)[C@H](CCC(=O)O)NC(=O)[C@H](Cc1cnc[nH]1)NC(=O)[C@H](CC(C)C)NC(=O)[C@H](CCC(=O)O)NC(=O)[C@H](C)NC(=O)[C@H](CO)NC(=O)[C@H](CC(C)C)NC(=O)[C@H](CCCCN)NC(=O)CNC(=O)[C@H](CC(C)C)NC(=O)[C@@H](NC(=O)[C@H](C)NC(=O)[C@@H](NC(=O)[C@H](CO)NC(=O)[C@H](CC(C)C)NC(=O)[C@H](CCC(=O)O)NC(=O)[C@H](CO)NC(=O)[C@H](C)NC(=O)[C@H](CCC(=O)O)NC(=O)CCCCCCCCCCCCCCCCC(=O)O)[C@@H](C)O)C(C)C)C(=O)N[C@@H](C)C(=O)N[C@H](C(=O)N[C@@H](CC(C)C)C(=O)N1CCC[C@H]1C(=O)N[C@@H](CCCCN)C(=O)N[C@H](C(=O)N[C@@H](CCC(=O)O)C(=O)N[C@H](C(=O)NCC(=O)N1CCC[C@H]1C(=O)N[C@@H](CCC(=O)O)C(=O)N[C@@H](CO)C(=O)N1CCC[C@H]1C(N)=O)[C@@H](C)O)[C@@H](C)O)[C@@H](C)O [compound 39, [N-terminal(C18 diacid), 9V, 12K, 25K]mimylin] ({C18 diacid}-EASELSTAVLGKLSAELHELATLPKTETGPESP-NH2) | ≧200 μM | – | ≧200 μM | ≧200 μM | ≧200 μM | ≧200 μM | ≧200 μM | ≧200 μM | ≧200 μM
CC(C)C[C@H](NC(=O)[C@H](C)NC(=O)[C@H](C)NC(=O)[C@@H](NC(=O)[C@H](CO)NC(=O)[C@H](CC(C)C)NC(=O)[C@H](CCC(=O)O)NC(=O)[C@H](CO)NC(=O)[C@H](C)NC(=O)COCCOCCNC(=O)COCCOCCNC(=O)CC[C@H](NC(=O)CCCCCCCCCCCCCCCCCCC(=O)O)C(=O)O)[C@@H](C)O)C(=O)NCC(=O)N[C@@H](CCCNC(=N)N)C(=O)N[C@@H](CC(C)C)C(=O)N[C@@H](CO)C(=O)N[C@@H](C)C(=O)N[C@@H](CCC(=O)O)C(=O)N[C@@H](CC(C)C)C(=O)N[C@@H](Cc1cnc[nH]1)C(=O)N[C@@H](CCC(=O)O)C(=O)N[C@@H](CC(C)C)C(=O)N[C@@H](C)C(=O)N[C@H](C(=O)N[C@@H](CC(C)C)C(=O)N1CCC[C@H]1C(=O)N[C@@H](CCCNC(=N)N)C(=O)N[C@H](C(=O)N[C@@H](CCC(=O)O)C(=O)N[C@H](C(=O)NCC(=O)N[C@@H](CO)C(=O)NCC(=O)N[C@@H](CO)C(=O)N1CCC[C@H]1C(N)=O)[C@@H](C)O)[C@@H](C)O)[C@@H](C)O [compound 42, [N-terminal(C20 diacid-gGlu-2xOEG), des1, 30S, 31G]mimylin] ({C20 diacid-γGlu-AEEA-AEEA}-ASELSTAALGRLSAELHELATLPRTETGSGSP-NH2) | ≧200 μM | – | ≧200 μM | ≧200 μM | ≧200 μM | ≧200 μM | ≧200 μM | ≧200 μM | ≧200 μM

The next lines start with the values.

Solubility (pH 3.0) | solubility at 18 h (pH 4.0) [µM] | Solubility (pH 5.0) | Solubility (pH 6.0) | Solubility (pH 6.5) | Solubility (pH 7.0) | Solubility (pH 7.5) | Solubility (pH 8.0) | Solubility (pH 4.0) | SMILES
≧200 μM | – | ≧200 μM | ≧200 μM | ≧200 μM | ≧200 μM | ≧200 μM | ≧200 μM | ≧200 μM | CC(C)C[C@H](NC(=O)[C@H](C)NC(=O)[C@H](C)NC(=O)[C@@H](NC(=O)[C@H](CO)NC(=O)[C@H](CC(C)C)NC(=O)[C@H](CCC(=O)O)NC(=O)[C@H](CO)NC(=O)[C@H](C)NC(=O)COCCOCCNC(=O)COCCOCCNC(=O)COCCOCCNC(=O)CC[C@H](NC(=O)CCCCCCCCCCCCCCCCCCC(=O)O)C(=O)O)[C@@H](C)O)C(=O)NCC(=O)N[C@@H](CCCNC(=N)N)C(=O)N[C@@H](CC(C)C)C(=O)N[C@@H](CO)C(=O)N[C@@H](C)C(=O)N[C@@H](CCC(=O)O)C(=O)N[C@@H](CC(C)C)C(=O)N[C@@H](Cc1cnc[nH]1)C(=O)N[C@@H](CCC(=O)O)C(=O)N[C@@H](CC(C)C)C(=O)N[C@@H](C)C(=O)N[C@H](C(=O)N[C@@H](CC(C)C)C(=O)N1CCC[C@H]1C(=O)N[C@@H](CCCNC(=N)N)C(=O)N[C@H](C(=O)N[C@@H](CCC(=O)O)C(=O)N[C@H](C(=O)NCC(=O)N[C@@H](CO)C(=O)NCC(=O)N[C@@H](CO)C(=O)N1CCC[C@H]1C(N)=O)[C@@H](C)O)[C@@H](C)O)[C@@H](C)O [compound 43, [N-terminal(C20 diacid-gGlu-3xOEG), des1, 30S, 31G]mimylin] ({C20 diacid-γGlu-AEEA-AEEA-AEEA}-ASELSTAALGRLSAELHELATLPRTETGSGSP-NH2)
≧200 μM | – | ≧200 μM | ≧200 μM | ≧200 μM | ≧200 μM | ≧200 μM | ≧200 μM | ≧200 μM | CC(C)C[C@H](NC(=O)[C@H](C)NC(=O)[C@H](C)NC(=O)[C@@H](NC(=O)[C@H](CO)NC(=O)[C@H](CC(C)C)NC(=O)[C@H](CCC(=O)O)NC(=O)[C@H](CO)NC(=O)[C@H](C)NC(=O)COCCOCCNC(=O)COCCOCCNC(=O)COCCOCCNC(=O)COCCOCCNC(=O)CC[C@H](NC(=O)CCCCCCCCCCCCCCCCCCC(=O)O)C(=O)O)[C@@H](C)O)C(=O)NCC(=O)N[C@@H](CCCNC(=N)N)C(=O)N[C@@H](CC(C)C)C(=O)N[C@@H](CO)C(=O)N[C@@H](C)C(=O)N[C@@H](CCC(=O)O)C(=O)N[C@@H](CC(C)C)C(=O)N[C@@H](Cc1cnc[nH]1)C(=O)N[C@@H](CCC(=O)O)C(=O)N[C@@H](CC(C)C)C(=O)N[C@@H](C)C(=O)N[C@H](C(=O)N[C@@H](CC(C)C)C(=O)N1CCC[C@H]1C(=O)N[C@@H](CCCNC(=N)N)C(=O)N[C@H](C(=O)N[C@@H](CCC(=O)O)C(=O)N[C@H](C(=O)NCC(=O)N[C@@H](CO)C(=O)NCC(=O)N[C@@H](CO)C(=O)N1CCC[C@H]1C(N)=O)[C@@H](C)O)[C@@H](C)O)[C@@H](C)O [compound 44, [N-terminal(C20 diacid-gGlu-4xOEG), des1, 30S, 31G]mimylin] ({C20 diacid-γGlu-AEEA-AEEA-AEEA-AEEA}-ASELSTAALGRLSAELHELATLPRTETGSGSP-NH2)
